# No end group written: not given here.
# Key:
# [1] = tested on: brine shrimp (Artemia salina); test: Brine shrimp toxicity of EDTA (Example 5); assay type: in vivo; conditions: for mortality at 20000 µM: Artemia salina, 20 mM; for mortality: concentrations less than or equal to 400 µM
# From the text: This Example describes the toxicity and efficacy of EDTA in reducing pathogenesis and promoting survival of shrimp. Brine shrimp (Artemia salina) were utilized as a model organism to simulate potential impacts on Pacific whiteleg shrimp (Penaeus vannamei).
# Artemia salina (a species of brine shrimp) were used. Additional materials included: ethylenediaminetetraacetic acid (EDTA; 99% pure) powder (USB Corporation Instant Ocean (Instant Ocean Spectrum Brands. Blacksburg, VA); and Artemia salina eggs were used.
# Artemia salina eggs were hatched in artificial seawater (Instant Ocean) under controlled conditions. Newly hatched brine shrimp were then exposed to varying concentrations of EDTA in experimental tanks. A separate set of tanks was used for each concentration of EDTA (20 mM, 400 uM, 200 uM, and 100 uM).
# Control tanks treated with saline water were prepared to observe the natural behavior and survival rate of Artemia salina without EDTA exposure.
# Brine shrimp were divided into different tanks for exposure to varying concentrations (20 mM, 400 uM, 200 uM, and 100 uM) of EDTA.
# Mortality and behavior of brine shrimp were recorded at 24 and 48 hours post-exposure.
# [2] = tested on: Escherichia coli (EC-18); test: Zone of inhibition on agar plates (Example 4); assay type: cell-based; conditions: for concentration with no killing / concentration with reduced growth / killing down to a concentration: pre-purification
# Method: (§1) ImmuCell Nisin A (96% pure) suspended in citric acid buffer (pH-3.4) at 4.86 mg/mL (ImmuCell, Portland, ME); Nisin A (Nissen®-A; 10% pure powder, Siveele, Breda, Netherlands): Nisin Z (26.7% pure) powder (Handry, Brussels, Belgium): Citric Acid Buffer (CAB) pH=3.4; Distilled H2O (dH2O); Instant Ocean (Instant Ocean Spectrum Brands, Blacksburg. VA): Artemia salina eggs: 60 mm Petri Dishes; Laboratory control strains of Staphylococcus aureus and Escherichia coli (“SA1” and “EC-18,” respectively): 15 mL Falcon Tubes; and Slide-A-Lyzer Dialysis Flask, 2K MWCO, 250 mL (Thermo Scientific, Rockford, IL) were used.
# (§2) Nisin variants (Nisin A, Nisin Z, and ImmuCell Nisin A) were dissolved in either citric acid buffer (CAB, pH 3.4) for Nisin A or dH2O for Nisin Z to make a stock solution of 4.86 mg/mL. Serial dilutions were performed to achieve the different concentrations (4.86 mg/mL to 0.005 mg/mL) for the experiments.
# (§3) Parallel to the toxicity tests, antibacterial efficacy was evaluated by applying Nisin solutions (before and after basic purification via Slide-A-Lyzer Dialysis) onto agar plates pre-inoculated with laboratory control strains Staphylococcus aureus (“SA1”) and Escherichia coli (“EC-18”). Zones of inhibition were measured 24 hours post-incubation at 37° C.
# (§4) Mortality and behavior of the brine shrimp were recorded at 24 and 48 hours post-exposure. For the antimicrobial tests, the diameter of inhibition zones on agar plates containing the laboratory control strains were measured and recorded.
# [3] = tested on: Staphylococcus aureus (SA1); test: Zone of inhibition on agar plates (Example 4); assay type: cell-based; conditions: for concentration with no killing / concentration with reduced growth / killing down to a concentration: pre-purification
# Method: as §1, §2, §3, §4
# [4] = tested on: E. coli (ECX); test: Zone of inhibition, Nisin with and without EDTA (Example 6); assay type: cell-based, Escherichia coli; conditions: 4.05 mg/mL Nisin in CAB, with or without 20.8 mM EDTA
# Method: (§5) ImmuCell Nisin A (96% pure) suspended in citric acid buffer (pH 3.4) at 4.05 mg/mL (ImmuCell, Portland, ME); Nisin A (Nissen®-A; 10% pure powder, Siveele, Breda, Netherlands): Citric Acid Buffer (CAB) pH=3.4; 60 mm Petri Dishes; Laboratory control strain of Staphylococcus aureus (“SAI”), experimental strains of Escherichia coli (“ECY” and “ECX”) and Vibrio parahaemolyticus (“VPY”, and “VPX”); and ethylenediaminetetraacetic acid (EDTA: 99% pure) powder (USB Corporation) were used.
# (§6) On the day before the experiment, stocks of Vibrio parahaemolyticus, Staphylococcus aureus, and Escherichia coli were prepared. An inoculation loop was sterilized, cooled, and used to extract cells, which were then cultured in nutrient broth at 37° C. for 16 to 20 hours. The bacterial density was adjusted to approximately 10^7 to 10^8 CFU/mL. Subsequently, 100 μL of each culture, normalized to about 10^6 to 10^7 CFU/mL, was evenly spread on agar plates using sterile glass beads, creating a uniform bacterial lawn. Four identical lawns were prepared for each bacterial type to ensure replicative testing of treatments.
# (§7) Two forms of Nisin, 96% pure Nisin (Immucell) and 10% pure Niseen (Sivele), were prepared in citric acid buffer (CAB) at a concentration of 4.05 mg/mL. To assess synergistic effects, EDTA was added to each Nisin solution to achieve a final concentration of 20.8 mM.
# (§8) […] of each treatment formulation were spotted onto the prepared bacterial lawns. These plates were then incubated at 37° C. for 16 to 20 hours to allow for bacterial growth and ZOI formation.
# (§9) The ZOI were observed and measured in millimeters to measure the degree of bacterial growth suppression.
# [5] = tested on: E. coli (ECY); test: as above; assay type: cell-based, Escherichia coli; conditions: 4.05 mg/mL Nisin in CAB, with or without 20.8 mM EDTA
# Method: as §5, §6, §7, §8, §9
# [6] = tested on: Staphylococcus aureus (SA1); test: as above; assay type: cell-based; conditions: 4.05 mg/mL Nisin in CAB, with or without 20.8 mM EDTA
# Method: as §5, §6, §7, §8, §9
# [7] = tested on: Vibrio parahaemolyticus (VPX); test: as above; assay type: cell-based; conditions: 4.05 mg/mL Nisin in CAB, with or without 20.8 mM EDTA
# Method: as §5, §6, §7, §8, §9
# [8] = tested on: Vibrio parahaemolyticus (VPY); test: as above; assay type: cell-based; conditions: 4.05 mg/mL Nisin in CAB, with or without 20.8 mM EDTA
# Method: as §5, §6, §7, §8, §9
# [9] = tested on: brine shrimp (Artemia salina); test: Brine shrimp toxicity of Nisin formulations (Example 4); assay type: in vivo; conditions: for efficacy in reducing mortality in shrimp: Nisin Z (26.7% pure) compared with Nisin A (10% pure)
# Method: This Example describes the efficacy of various Nisins: Nisin Z, Nisin A, and ImmuCell Nisin A. This experiment assessed the safety and antimicrobial efficacy of various Nisin formulations in treating Vibrio parahaemolyticus infections, a common pathogen in aquaculture environments. Brine shrimp (Artemia salina) were utilized as a model organism to simulate potential impacts on Pacific whiteleg shrimp (Penaeus vannamei).
# as §2
# Artemia salina eggs were hatched in artificial seawater (Instant Ocean) under controlled conditions. Newly hatched brine shrimp were then exposed to varying concentrations of each Nisin solution in experimental tanks. A separate set of tanks was used for each type of Nisin formulation.
# Control tanks (treated with either CAB or saline water) were prepared to observe the natural behavior and survival rate of Artemia salina without Nisin exposure.
# Brine shrimp were divided into different tanks for exposure to varying concentrations (2.43 mg/mL, 0.608 mg/mL, 0.152 mg/mL, and 0.038 mg/mL) of Nisin A, Nisin Z, and ImmuCell Nisin A.
# as §4
# [10] = Suspension in dH2O; assay type: physicochemical
# Method: as §2
# [11] = Retention by 2 kDa dialysis membrane; assay type: physicochemical; conditions: water sampled at 4 and 24 hours
# Method: as §3
# Next, the zones of inhibition for Nisin Z pre- and 48 hours post-2 kDa dialysis membrane purification were spotted onto a lawn of a control strain (SA1). […] Water samples were taken to test if any drug was lost at the 4 hour mark and again at the 24 hour mark. […] To remove additional contaminants, additional filtration is performed to purify Nisin Z.
# [12] = tested on: Vibrio parahaemolyticus; test: Brine shrimp efficacy challenge trial with and without Nisin (Example 7); assay type: in vivo, Artemia salina; conditions: vs control group exposed to Vibrio parahaemolyticus without Nisin Z; example in present tense
# Method: Brine shrimp (Artemia salina) are used and are prepared according to methods detailed in Examples 1-6. Additional materials, methods and experimental design may be similar to that described in Examples 1-6. A virulent strain of Vibrio parahaemolyticus is cultured to a concentration of about […], which is used for the challenge. Shrimp groups are divided: one group receives no treatment (as control) and the other group set receives brine infused with Nisin Z (concentration as determined optimal in prior experiments).
# [13] = highly acidic conditions, high temperatures, proteases; cited from earlier work
# [14] = tested on: brine shrimp; test: Pre- and post-dialysis toxicity assay and Nisin/EDTA toxicity assay (Example 9); assay type: in vivo, Artemia salina; conditions: after 48-hour dialysis; example in present tense
# From the text: Utilizing materials, methods and experimental designs as described in Examples 1-6, Nisin Z is subjected to a 48-hour dialysis treatment to reduce impurities. The toxicity assay involves exposing brine shrimp to treated and untreated samples of Nisin Z, both alone and in combination with EDTA at a concentration of […].
# [15] = all dilutions 4.86 mg/mL-0.005 mg/mL
# [16] = unpurified, in dH2O, 0.608 mg/mL
Compound,Diameter (zone of inhibition) [4] [mm],Diameter (zone of inhibition) [5] [mm],Diameter (zone of inhibition) [6] [mm],Diameter (zone of inhibition) [7] [mm],Diameter (zone of inhibition) [8] [mm],concentration with no killing [2] [mg/mL],concentration with reduced growth [2] [mg/mL],killing down to a concentration [2] [mg/mL],concentration with no killing [3] [mg/mL],concentration with reduced growth [3] [mg/mL],killing down to a concentration [3] [mg/mL],efficacy in reducing mortality in shrimp [9],"mortality [9, 16]",suspension with dH2O as solvent [10],further results
"O=C(O)CN(CCN(CC(=O)O)CC(=O)O)CC(=O)O [EDTA, ethylenediaminetetraacetic acid]",,,,,,,,,,,,,,,mortality at 20000 µM ([1]; 24 hours post-exposure): 100%; mortality at 20000 µM ([1]; 48 hours post-exposure): 100%; mortality ([1]; 24 hours post-exposure): zero mortality; mortality ([1]; 48 hours post-exposure): zero mortality
"ImmuCell Nisin A: ImmuCell Nisin A (96% pure) suspended in citric acid buffer (ImmuCell, Portland, ME) (ITSISLCTPGCKTGALMGCNMKTATCHCSIHVSK; cysteine pairing not given here; also: lantibiotic, modifications not placed; UniProt P13068 24-57, looked up)",10,6,13,4,4,,,,,,,,,,"zones of inhibition [2, 15]: clear zones of inhibition; zones of inhibition [3, 15]: clear zones of inhibition"
"Nisin A: Nisin A (Nissen®-A; 10% pure powder, Siveele, Breda, Netherlands) (ITSISLCTPGCKTGALMGCNMKTATCHCSIHVSK; cysteine pairing not given here; also: lantibiotic, modifications not placed; UniProt P13068 24-57, looked up)",8,4,13,4,0,0.005,0.009,0.019,0.005,0.009,0.019,comparable efficacy,drastic increase in mortality,did not go fully into suspension,"mortality ([9]; unpurified, in dH2O, 0.152 mg/mL): showed mortality"
"Nisin Z: Nisin Z (26.7% pure) powder (Handry, Brussels, Belgium) (ITSISLCTPGCKTGALMGCNMKTATCNCSIHVSK; not fully specified (residues 2, 5, 33, bridges); cysteine pairing not given here; UniProt P29559 24-57, looked up)",,,,,,0.005,0.009,0.019,0.005,0.009,0.019,comparable efficacy,drastic increase in mortality,went into suspension fully,"zones of inhibition pre- and 48 hours post-dialysis ([3]; 2 kDa dialysis membrane purification): same sized zones; toxicity ([9]; unpurified, in dH2O, 0.152 mg/mL to 0.038 mg/mL, 48 hours): no toxicity; loss of Nisin into the dH2O [11]: no loss of Nisin; mortality rates [12]: significantly lower mortality rates"
aureocin A53,,,,,,,,,,,,,,,"stability [13]: stable under highly acidic conditions, high temperatures, and is not affected by proteases"
"post-dialyzed Nisin Z: Nisin Z subjected to a 48-hour dialysis treatment to reduce impurities (ITSISLCTPGCKTGALMGCNMKTATCNCSIHVSK; cysteine pairing not given here; also: lantibiotic nisin-Z, modifications not given here; UniProt P29559 24-57, looked up)",,,,,,,,,,,,,,,toxicity [14]: reduced toxicity
